Results published in patent EP0271023A2, “Use of dihydrophenylamino-acid derivatives and medicines containing them for immunomodulation and cytostasis” (GÖDECKE AKTIENGESELLSCHAFT, priority 1986, dated 1988).

Assays:
[1] = system: allogene Hauttransplantate; format: in vivo, Ratte; details: for Toxizität / Unverträglichkeit der behandelten Tiere: skin graft model, Tab. I, Azathioprin in äquipotenter Dosis; for Wirksamkeit im Hauttransplantat-Modell (immunsuppressive Aktivität): qualitative statement
Source text: Die mit einer Stanze gewonnenen und vom Panniculus carnosus (einer Fett- und Muskelschicht) präparativ befreiten Transplantate werden in ebenfalls ausgestanzte Transplantatbetten des Empfängertiers plaziert. Die Transplantate werden mit speziellem Verbandmaterial bedeckt und mit einer Bandage fixiert. Endpunkt der Untersuchung ist der Tag, an dem 50 % der Tiere beide Transplantate vollständig abgestoßen haben. Die immunsuppressive Aktivität eines Wirkstoffs wird anhand der Verlängerung des normalen Transplantatüberlebens (Tage) der nicht behandelten Kontrolltiere bestimmt.

[2] = cited from earlier work
[3] = system: boviner Endothelzellen; experiment: In vitro migration/motility of endothelial cells under angiogenic stimulus (modified Boyden chamber); format: cell-based, bovine; details: for Anzahl der migrierten Zellen Kollagen-Fibronektin-Filter / Anzahl der migrierten Zellen Kollagen-Filter: Präinkubation + (Gangliosid-Mischung), innerhalb 8 Stunden, Mittelwert (± Standardabweichung) von 3 Versuchen
Source text: Es wurde daher eine Untersuchung mit Cefradin als Modellsubstanz auf eine die Gefäßbildung hemmende Aktivität in einem hierzu geeigneten in vitro Model durchgeführt (s. Tab. II). In diesem Test wird der Einfluß auf die Motilität boviner Endothelzellen unter angiogenem (gefäßbildendem) Stimulus bestimmt.

| SMILES | Toxizität / Unverträglichkeit der behandelten Tiere [1] | Wirksamkeit im Hauttransplantat-Modell (immunsuppressive Aktivität) [1] | Nierentoxizität ([2]; im Tierversuch, länger dauernde hochdosierte Anwendung) | leukopenische Wirkung ([2]; in vivo) | Anzahl der migrierten Zellen Kollagen-Fibronektin-Filter ([3]; Cefradin 10 µg/ml Medium) | Anzahl der migrierten Zellen Kollagen-Filter ([3]; Cefradin 10 µg/ml Medium) | Anzahl der migrierten Zellen Kollagen-Fibronektin-Filter ([3]; Cefradin 100 µg/ml Medium) | Anzahl der migrierten Zellen Kollagen-Filter ([3]; Cefradin 100 µg/ml Medium) | Anzahl der migrierten Zellen Kollagen-Fibronektin-Filter ([3]; Cefradin 1000 µg/ml Medium) | Anzahl der migrierten Zellen Kollagen-Filter ([3]; Cefradin 1000 µg/ml Medium) | Aktivität auf die Motilität boviner Endothelzellen ([3]; concentration range corresponding to the low, already immunosuppressive in vivo doses) | Inhibition der Endothelmotilität ([3]; in hoher, bereits zytotoxischer Konzentration) | Ausbildung der Gefäßverbindung zwischen Transplantatbett und Transplantat ([1]; höchste Cefradin Dosis, in controls established by about the 5th postoperative day) |
| --- | --- | --- | --- | --- | --- | --- | --- | --- | --- | --- | --- | --- | --- |
| Cn1cnc([N+](=O)[O-])c1Sc1ncnc2nc[nH]c12 [Azathioprin, 6[(1-Methylnitroimidazol-5-yl)thio]purin] | ausgeprägt toxisch |  |  |  |  |  |  |  |  |  |  |  |  |
| CC1=C(C(=O)O)N2C(=O)[C@@H](NC(=O)[C@H](N)c3ccc(O)cc3)[C@H]2SC1 [Cefadroxil] |  | Unwirksamkeit |  |  |  |  |  |  |  |  |  |  |  |
| CC1=C(C(=O)O)N2C(=O)C(NC(=O)C(N)C3=CCC=CC3)C2SC1 (stereo not drawn) [Cefradin] | keinerlei Unverträglichkeit | außerordentlich wirksam | keine Nierentoxizität | nicht leukopenisch | 306 ± 74 | 173 ± 29 | 256 ± 24 | 104 ± 3 | 51 ± 6 | 23 ± 8 | nur geringfügige, wenn auch dosisabhängige Aktivität | komplette Inhibition | unterdrückte |
